Key:
Orobanche cumana = conditions: reported in EP 0123001 (A1) / Fan et al., Weed Research 2007; cited from earlier work
Orobanche sp. (ORASS) [1] = assay: Impact of host infestation with Orobanche, tank mixture versus single application, score 1 to 10; type: in vivo; conditions: 21 days after treatment; application at BBCH 16-18; Imazamox 15 g/ha, Prohexadione-Ca 75 g/ha; value 1 (no infestation) to 10 (high negative impact)
From the text: Seeds of sunflower (Helianthus annuus L.) where sown as host test plants using small scale field experiment equipment. Host test plants were, uniform and homogeneous with respect to age, cultivar, and row spacing and distance in the row. Plot size 2.8 m×10 m—4 rows per plot. Test area was kept weed free of conventional weeds (monocotyledon and dicotyledonous weeds) by hand hoeing. Natural infestations of parasitic weeds were present in the soil of the test areas. Sequential application were performed with the solo active components and compared to the respective mixture. The respectively stated components A) and B) were used as commercially available formulations and, with addition of a solvent system, introduced into the spray medium used for applying the active composition. In the examples, the spray medium used was water.

sunflower = assay: Field experiment: yield of sunflower seeds under Orobanche infestation; type: in vivo, Helianthus annuus L.; conditions: Imazamox 30 g/ha at BBCH 14-15 and 20 g/ha at BBCH 16-18; Prohexadione-Ca 60 g/ha at BBCH 14-15 and 40 g/ha at BBCH 16-18; untreated 1127
Orobanche sp. (ORASS) [2] = assay: Field experiment: delay of weed emergence and number of Orobanche plants per host plant in imazamox tolerant sunflower; type: in vivo; conditions: Imazamox 30 g/ha at BBCH 14-15 and 20 g/ha at BBCH 16-18, Prohexadione-Ca 60 g/ha at BBCH 14-15 and 40 g/ha at BBCH 16-18; for first visible emergence of orobanche (DAT): untreated 22
Orobanche cumana (ORACE) = assay: Field experiment: herbicidal activity against natural Orobanche cumana infestation in sunflower, postemergence treatments; type: in vivo; conditions: Imazamox 50 and/or Prohexadione-Ca 100 g a.i./ha total
From the text: Host test plants were, uniform and homogeneous with respect to age, cultivar, and row spacing and distance in the row. Plot size 2.8 m×10 m-4 rows per plot. Test area was kept weed free of conventional weeds (monocotyledon and dicotyledonous weeds) by hand hoeing. Natural infestations of parasitic weeds were present in the soil of the test areas. Postemergence treatments where performed with up to 4 application timings regarding the growth stage of the host plant. Application timings are specified with M, N, O, and P and related to the following growth stages of the host test plants according to the BBCH-scale” Lancashire, […] Boom, E. Weber and A. Witzenberger, 1991: A uniform decimal code for growth stages of crops and weeds. Ann. appl. […] Sequential application were performed with the solo active components and compared to the respective mixture. The respectively stated components A) and B) were used as commercially available formulations and, with addition of a solvent system, introduced into the spray medium used for applying the active composition. In the examples, the spray medium used was water. […] The test period extended over 1 to 4 month. During this time, the plants were tended, and their response to the individual treatments was evaluated. Evaluation was carried out using a scale from 0 to 100 to express activity (in %). 100% means no emergence of the parasitic plants, or complete destruction of at least the above-ground parts, and 0% means no damage or normal course of growth of the parasitic plants. Good herbicidal activity is given at values of at least 70, and very good herbicidal activity is given at values of at least 85. In the examples below, using the method of S. R. Colby (1967) “Calculating synergistic and antagonistic responses of herbicide combinations”, Weeds 15, p. 22ff., the value E, which is expected if the activity of the individual active compounds is only additive, was calculated. E=X+Y-(X·Y/100) • where • X=percent activity using active component A) at an application rate a; • Y=percent activity using active component B) at an application rate b; • E=expected activity (in %) by A)+B) at application rates a+b. If the value found experimentally is higher than the value E calculated according to Colby, a synergistic effect is present. The herbicidal activity of the tested compositions against Orobanche cumana (ORACE) according to the invention is compiled in table V.

[3] = timing M, N, O, P (BBCH growth stage), scale 0 to 100, 100 = no emergence or complete destruction
[4] = timing M, O (BBCH growth stage), scale 0 to 100
[5] = timing N, P (BBCH growth stage), scale 0 to 100

Molecule | sunflower resistance against infection with Orobanche cumana (Orobanche cumana) | impact of host infestation with ORASS (Orobanche sp. (ORASS) [1]) | yield of sunflower seeds (sunflower) [kg/ha] | no. of orobanche plants per host plant (Orobanche sp. (ORASS) [2]) | first visible emergence of orobanche (DAT) (Orobanche sp. (ORASS) [2]) | activity in % (Orobanche cumana (ORACE); [3]) [%] | activity in % (Orobanche cumana (ORACE); [4]) [%] | activity in % (Orobanche cumana (ORACE); [5]) [%]
prohexadione-calcium | induces sunflower resistance | 6 | 961 | 55 | 63 | 2 | 5 | 8
COCc1cnc(C2=NC(C)(C(C)C)C(=O)N2)c(C(=O)O)c1 (stereo not drawn) [Imazamox, imazamox] |  | 4 | 2055 | 15 | 81 | 69 | 67 | 68

Source: patent US9681661B2, “Method of controlling parasitic weeds with mixtures comprising herbicidal acetolactate synthase inhibitors and plant growth regulators” (BASF Agrochemical Products B.V., priority 2011, dated 2017)
